Results reported in patent US9624238B2, “4H-thieno[3,2-C]chromene-based inhibitors of Notum Pectinacetylesterase and methods of their use” (Lexicon Pharmaceuticals, Inc., priority 2011, dated 2017).

Assays:
[1] = biological target: T1, human notum pectinacetyltransferase (Homo sapiens, UniProt Q6P988); experiment: Binding assay (OPTS esterase substrate, fluorimetric); type: biochemical
T1 construct: made in house; unpurified conditioned medium used
T1 sequence (Q6P988 20-496): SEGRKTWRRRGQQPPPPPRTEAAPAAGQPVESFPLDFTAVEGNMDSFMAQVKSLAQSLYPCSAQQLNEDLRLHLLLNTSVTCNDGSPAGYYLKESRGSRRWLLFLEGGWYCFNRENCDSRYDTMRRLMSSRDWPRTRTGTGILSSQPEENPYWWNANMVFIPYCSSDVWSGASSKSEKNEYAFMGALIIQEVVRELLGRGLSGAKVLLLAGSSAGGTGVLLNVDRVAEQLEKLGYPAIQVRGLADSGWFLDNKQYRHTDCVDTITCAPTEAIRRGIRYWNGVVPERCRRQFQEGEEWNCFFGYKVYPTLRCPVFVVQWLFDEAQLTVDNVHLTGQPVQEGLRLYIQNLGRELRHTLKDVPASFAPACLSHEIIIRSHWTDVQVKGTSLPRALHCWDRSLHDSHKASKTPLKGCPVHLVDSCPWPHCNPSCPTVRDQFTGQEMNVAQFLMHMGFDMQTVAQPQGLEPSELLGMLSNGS
Procedure: Plasmid containing human notum pectinacetyltransferase in pcDNA3.1(+) vector was transfected into HEK (293 cells and clones were selecting by growing in presence of 400 ug/mL of G418. Condition media from these cells was used for the assay.

[2] = biological target: T1, human notum pectinacetyltransferase; experiment: Reporter assay (CellSensor LEF/TCF-bla FreeStyle 293F cells, Wnt3a and notum conditioned media); type: cell-based
[3] = given as numeric bound above the legend's highest class
[4] = given as a numeric bound above the legend's range

| IC50 [1, 3] [nM] | EC50 ([2]; class symbols) [nM] | IC50 ([1]; class symbols) [nM] | IC50 [1, 4] [nM] | SMILES | further results |
| --- | --- | --- | --- | --- | --- |
| > 2000 | < 100 |  |  | O=C(O)c1cc2c(s1)-c1ccccc1SCC2 |  |
|  | < 50 | < 50 |  | COc1ccc2c(c1Br)CCc1cc(C(N)=O)sc1-2 |  |
|  | < 1000 |  | > 2000 | COc1cccc2c1S(=O)(=O)Cc1cc(C(=O)O)sc1-2 |  |
| > 2000 | < 500 |  |  | COC(C)(C)CNC(=O)c1cc2c(s1)-c1ccc(Cl)c(F)c1OC2 |  |
|  |  |  | > 2000 | N#Cc1ccc2c(c1)OCc1cc(C(N)=O)sc1-2 | EC50 [2, 4]: > 1000 nM |
| > 2000 | < 1000 |  |  | N#Cc1ccc2c(c1)CCc1cc(C(=O)O)sc1-2 |  |
|  | < 50 | < 100 |  | NC(=O)c1cc2c(s1)-c1cc(F)c(F)cc1OC2 |  |
|  | < 50 |  | > 2000 | Cc1cc(C)c2c(c1)OCc1cc(C(=O)O)sc1-2 |  |
|  | < 500 |  | > 2000 | NC(=O)c1cc2c(s1)-c1cc(Cl)c(C(F)(F)F)cc1OC2 |  |
|  | < 100 |  | > 2000 | N#Cc1cc2c(cc1F)OCc1cc(C(=O)O)sc1-2 |  |
|  |  |  | > 2000 | COc1cc2c(cc1C#N)-c1sc(C(=O)O)cc1CC2 | EC50 [2, 4]: > 1000 nM |
|  | < 1000 |  | > 2000 | CC(C)c1ccc2c(c1)-c1sc(C(N)=O)cc1CO2 |  |
|  | < 100 |  | > 2000 | CC(C)c1ccc2c(c1)-c1sc(C(=O)O)cc1CO2 |  |
| > 2000 | < 500 |  |  | COCCNC(=O)c1cc2c(s1)-c1cc(F)ccc1OCC2 |  |
| > 2000 | < 500 |  |  | COCCNC(=O)c1cc2c(s1)-c1ccccc1CCC2 |  |
|  | < 50 |  | > 2000 | O=C(NC1CC1)c1cc2c(s1)-c1ccccc1CC2 |  |
|  | < 50 | < 1000 |  | Nc1c(C(=O)O)sc2c1CSc1ccccc1-2 [3-amino-4H-thieno[3,2-c]thiochromene-2-carboxylic acid] |  |
|  | < 50 | < 50 |  | NC(=O)c1cc2c(s1)-c1ccccc1OC2 [4H-thieno[3,2-c]chromene-2-carboxamide] |  |
|  | < 500 | < 1000 |  | O=C(O)c1cc2c(s1)-c1cc(F)cc(F)c1S(=O)(=O)C2 [6,8-difluoro-4H-thieno[3,2-c]thiochromene-2-carboxylic acid 5,5-dioxide] |  |
|  | < 50 | < 50 |  | NC(=O)c1cc2c(s1)-c1c(F)ccc(F)c1SC2 [6,9-difluoro-4H-thieno[3,2-c]thiochromene-2-carboxamide] |  |
|  | < 50 | < 1000 |  | O=C(O)c1cc2c(s1)-c1cccc(F)c1OC2 [6-fluoro-4H-thieno[3,2-c]chromene-2-carboxylic acid] |  |
|  | < 50 | < 50 |  | NC(=O)c1cc2c(s1)-c1c(F)cc(F)cc1OC2 [7,9-difluoro-4H-thieno[3,2-c]chromene-2-carboxamide] |  |
|  | < 50 | < 2000 |  | COc1ccc2c(c1)CCc1cc(C(=O)O)sc1-2 [7-methoxy-4,5-dihydronaphtho[1,2-b]thiophene-2-carboxylic acid] |  |
|  | < 50 | < 1000 |  | O=C(NCCO)c1cc2c(s1)-c1ccccc1CC2 [N-(2-hydroxyethyl)-4,5-dihydronaphtho[1,2-b]thiophene-2-carboxamide] |  |
| > 2000 | < 500 |  |  | CCOC(=O)c1cc2c(s1)-c1ccc(OC)cc1CC2 [ethyl 7-methoxy-4,5-dihydronaphtho[1,2-b]thiophene-2-carboxylate] |  |

Further lines, the compound ahead of its results:

| SMILES | IC50 [1, 3] [nM] | EC50 ([2]; class symbols) [nM] | IC50 ([1]; class symbols) [nM] | IC50 [1, 4] [nM] | further results |
| --- | --- | --- | --- | --- | --- |
| O=C(O)c1cc2c(s1)-c1ccccc1S(=O)(=O)CC2 | > 2000 | < 1000 |  |  |  |
| NC(=O)c1cc2c(s1)-c1cccc(F)c1CC2 |  | < 50 | < 50 |  |  |
| COc1cccc2c1OCc1cc(C(=O)O)sc1-2 |  | < 500 |  | > 2000 |  |
| COc1cccc2c1CCc1cc(C(=O)O)sc1-2 | > 2000 | < 50 |  |  |  |
| Cc1ccc(C)c2c1-c1sc(C(=O)O)cc1CS2(=O)=O |  | < 500 |  | > 2000 |  |
| Cc1ccc(C)c2c1SCc1cc(C(=O)O)sc1-2 |  | < 50 |  | > 2000 |  |
| O=C(NCCN1CCOCC1)c1cc2c(s1)-c1ccc(Cl)c(F)c1OC2 | > 2000 | < 500 |  |  |  |
| NC(=O)c1cc2c(s1)-c1cc(Br)ccc1OC2 |  | < 50 | < 1000 |  |  |
| N#Cc1ccc2c(c1)-c1sc(C(=O)O)cc1CC2 | > 2000 | < 1000 |  |  |  |
| COc1ccc2c(c1)-c1sc(C(=O)O)cc1CS2(=O)=O |  | < 500 |  | > 2000 |  |
| COc1ccc2c(c1)-c1sc(C(=O)O)cc1CC2 | > 2000 | < 500 |  |  |  |
| O=C(NCCn1ccnc1)c1cc2c(s1)-c1cccc(F)c1CC2 |  | < 500 |  | > 2000 |  |
| CCOC(=O)c1cc2c(s1)-c1cccc(OC)c1CC2 | > 2000 | < 500 |  |  |  |
| CCOC(=O)c1cc2c(s1)-c1cc(OC)ccc1CC2 | > 2000 |  |  |  | EC50 [2, 3]: > 1000 nM |
| O=C(O)C1CN(C(=O)c2cc3c(s2)-c2ccc(Cl)c(Cl)c2OC3)CC1c1ccccc1F (racemic) |  | < 50 | < 50 |  |  |
| Cc1cc(C)c2c(c1)-c1sc(C(=O)NCC(=O)O)cc1CC2 [2-(6,8-dimethyl-4,5-dihydronaphtho[1,2-b]thiophene-2-carboxamido)acetic acid] |  | < 100 | < 1000 |  |  |
| O=C(O)c1cc2c(s1)-c1cc(F)cc(F)c1[S+]([O-])C2 (stereo not drawn) [6,8-difluoro-4H-thieno[3,2-c]thiochromene-2-carboxylic acid 5-oxide] | > 2000 | < 500 |  |  |  |
| Cc1cc(C)c2c(c1)-c1sc(C(N)=O)cc1CC2 [6,8-dimethyl-4,5-dihydronaphtho[1,2-b]thiophene-2-carboxamide] |  | < 50 | < 1000 |  |  |
| NCCNC(=O)c1cc2c(s1)-c1ccccc1CC2 [N-(2-aminoethyl)-4,5-dihydronaphtho[1,2-b]thiophene-2-carboxamide] |  | < 500 | < 2000 |  |  |
| CCOC(=O)c1cc2c(s1)-c1ccc(C)c(C#N)c1CC2 [ethyl 6-cyano-7-methyl-4,5-dihydronaphtho[1,2-b]thiophene-2-carboxylate] |  | < 50 | < 50 |  |  |
